Experimental data published in patent US9328099B2, “Cyanomethylpyrazole carboxamides as janus kinase inhibitors” (Merck Sharp & Dohme Corp., priority 2011, dated 2016).

Target: JAK1 (Homo sapiens (Human), UniProt P23458)
Assay: Jak Biochemical HTRF Assay, JAK1
Settings: HTRF biochemical assay, GST-tagged catalytic domain; top concentration tested […]; read-out: JAK1 IC50
Text: Jak Biochemical HTRF Assay Protocol
Subsequent reagent additions employed an Agilent Bravo.

Chain of JAK1 (P23458 875-1153): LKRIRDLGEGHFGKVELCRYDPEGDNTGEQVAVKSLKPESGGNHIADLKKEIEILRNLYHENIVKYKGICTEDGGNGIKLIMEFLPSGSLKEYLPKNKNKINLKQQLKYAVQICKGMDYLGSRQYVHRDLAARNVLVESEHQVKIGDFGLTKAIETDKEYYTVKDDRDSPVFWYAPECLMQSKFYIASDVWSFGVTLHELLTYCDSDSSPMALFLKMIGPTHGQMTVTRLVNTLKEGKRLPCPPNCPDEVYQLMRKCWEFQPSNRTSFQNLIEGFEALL

| Structure (SMILES) | IC50 |
| --- | --- |
| CC(F)(F)C(=O)N1CC[C@](CC#N)(n2cc(C(N)=O)c(Nc3ccc(F)nc3)n2)[C@H](F)C1 (single isomer, unassigned) [Example 43-3, 1-((3R,4R or 3S,4S)-4-(cyanomethyl)-1-(2,2-difluoropropanoyl)-3-fluoropiperidin-4-yl)-3-((6-fluoropyridin-3-yl)amino)-1H-pyrazole-4-carboxamide] | 0.9 nM |
| CC(F)(F)C(=O)N1CC[C@@](CC#N)(n2cc(C(N)=O)c(Nc3ccc(F)nc3)n2)[C@@H](F)C1 (single isomer, unassigned) [Example 43-4, 1-((3R,4R or 3S,4S)-4-(cyanomethyl)-1-(2,2-difluoropropanoyl)-3-fluoropiperidin-4-yl)-3-((6-fluoropyridin-3-yl)amino)-1H-pyrazole-4-carboxamide] | 0.05 nM |
| N#CCC1(n2cc(C(N)=O)c(Nc3ccnc(F)c3)n2)CCN(C(=O)OC2CCOC2)CC1 (single isomer, unassigned) [Example 49-1, (3S or 3R)-tetrahydrofuran-3-yl 4-{4-carbamoyl-3-[(2-fluoropyridin-4-yl)amino]-1H-pyrazol-1-yl}-4-(cyanomethyl)piperidine-1-carboxylate] | 0.6 nM |
| N#CCC1(n2cc(C(N)=O)c(Nc3ccnc(F)c3)n2)CCN(C(=O)OC2CCOC2)CC1 (single isomer, unassigned) [Example 49-2, (3S or 3R)-tetrahydrofuran-3-yl 4-{4-carbamoyl-3-[(2-fluoropyridin-4-yl)amino]-1H-pyrazol-1-yl}-4-(cyanomethyl)piperidine-1-carboxylate] | 0.4 nM |
| CC(C)(C)OC(=O)C1CCC(CC#N)(n2cc(C(N)=O)c(Nc3ccccc3)n2)CC1 (stereo not shown) [Example 2-18, tert-butyl 4-[4-carbamoyl-3-(phenylamino)-1H-pyrazol-1-yl]-4-(cyanomethyl) cyclohexanecarboxylate] | 3 nM |
| N#CCC1(n2cc(C(N)=O)c(Nc3ccc(F)cc3)n2)CCN(c2cncc3ccccc23)CC1 [Example 3-2, 1-[4-(cyanomethyl)-1-isoquinolin-4-ylpiperidin-4-yl]-3-[(4-fluorophenyl)amino]-1H-pyrazole-4-carboxamide] | 6 nM |
| CC(C)(O)c1cccc(N2CCC(CC#N)(n3cc(C(N)=O)c(Nc4ccc(F)cc4)n3)CC2)n1 [Example 3-7, 1-{4-(cyanomethyl)-1-[6-(1-hydroxy-1-methylethyl)pyridin-2-yl]piperidin-4-yl}-3-[(4-fluorophenyl)amino]-1H-pyrazole-4-carboxamide] | 0.3 nM |
| Cc1cccc(N2CCC(CC#N)(n3cc(C(N)=O)c(Nc4ccc(F)cc4)n3)CC2)n1 [Example 3-20, 1-[4-(cyanomethyl)-1-(6-methylpyridin-2-yl)piperidin-4-yl]-3-[(4-fluorophenyl)amino]-1H-pyrazole-4-carboxamide] | 5 nM |
| N#CCC1(n2cc(C(N)=O)c(Nc3ccc(F)cc3)n2)CCN(c2ccc(F)nc2)CC1 [Example 3-22, 1-[4-(cyanomethyl)-1-(6-fluoropyridin-3-yl)piperidin-4-yl]-3-[(4-fluorophenyl)amino]-1H-pyrazole-4-carboxamide] | 0.4 nM |
| N#CCC1(n2cc(C(N)=O)c(Nc3ccc(F)cc3)n2)CCN(c2cncnc2)CC1 [Example 3-24, 1-[4-(cyanomethyl)-1-pyrimidin-5-ylpiperidin-4-yl]-3-[(4-fluorophenyl)amino]-1H-pyrazole-4-carboxamide] | 0.1 nM |
| N#CCC1(n2cc(C(N)=O)c(Nc3ccc(F)cc3)n2)CCN(c2cccc(F)c2)CC1 [Example 3-27, 1-[4-(cyanomethyl)-1-(3-fluorophenyl)piperidin-4-yl]-3-[(4-fluorophenyl)amino]-1H-pyrazole-4-carboxamide] | 1 nM |
| CS(=O)(=O)c1ccc(Nc2nn(C3(CC#N)CCOCC3)cc2C(N)=O)cc1 [Example 4-5, 1-[4-(cyanomethyl)tetrahydro-2H-pyran-4-yl]-3-{[4-(methylsulfonyl)phenyl]amino}-1H-pyrazole-4-carboxamide] | 22 nM |
| N#CCC1(n2cc(C(N)=O)c(Nc3ccc(F)cc3)n2)CCSCC1 [Example 7, 1-(4-(Cyanomethyl)tetrahydro-2H-thiopyran-4-yl)-3-((4-fluorophenyl)amino)-1H-pyrazole-4-carboxamide] | 8 nM |
| CC(C)(C)OC(=O)N1CCC(CC#N)(n2cc(C(N)=O)c(Nc3ccc(S(=O)(=O)C(F)(F)F)cc3)n2)CC1 [Example 9-15, tert-butyl 4-[4-carbamoyl-3-({4-[(trifluoromethyl)sulfonyl]phenyl}amino)-1H-pyrazol-1-yl]-4-(cyanomethyl)piperidine-1-carboxylate] | 2 nM |
| COc1cc(Nc2nn(C3(CC#N)CCN(C(=O)OC(C)(C)C)CC3)cc2C(N)=O)ccn1 [Example 9-19, tert-butyl 4-{4-carbamoyl-3-[(2-methoxypyridin-4-yl)amino]-1H-pyrazol-1-yl}-4-(cyanomethyl)piperidine-1-carboxylate] | 6 nM |
| CC(C)(C)OC(=O)N1CCC(CC#N)(n2cc(C(N)=O)c(Nc3ccnc(C(F)(F)F)c3)n2)CC1 [Example 9-23, tert-butyl 4-(4-carbamoyl-3-{[2-(trifluoromethyl)pyridin-4-yl]amino}-1H-pyrazol-1-yl)-4-(cyanomethyl)piperidine-1-carboxylate] | 0.4 nM |
| CC(C)(C)OC(=O)N1CCC(CC#N)(n2cc(C(N)=O)c(Nc3ccnc(C(N)=O)c3)n2)CC1 [Example 9-27, tert-butyl 4-{4-carbamoyl-3-[(2-carbamoylpyridin-4-yl)amino]-1H-pyrazol-1-yl}-4-(cyanomethyl)piperidine-1-carboxylate] | 0.4 nM |
| N#CCC1(n2cc(C(N)=O)c(Nc3ccc(OC4CCC4)nc3)n2)CCN(C(=O)OCC(F)F)CC1 [Example 9-37, 2,2-difluoroethyl 4-(4-carbamoyl-3-{[6-(cyclobutyloxy)pyridin-3-yl]amino}-1H-pyrazol-1-yl)-4-(cyanomethyl)piperidine-1-carboxylate] | 0.2 nM |
| N#CCC1(n2cc(C(N)=O)c(Nc3ccc(C4CC4)nc3)n2)CCN(C(=O)OCC(F)F)CC1 [Example 9-40, 2,2-difluoroethyl 4-{4-carbamoyl-3-[(6-cyclopropylpyridin-3-yl)amino]-1H-pyrazol-1-yl}-4-(cyanomethyl)piperidine-1-carboxylate] | 0.7 nM |
| CC(C)(O)c1ccc(Nc2nn(C3(CC#N)CCN(C(=O)OCC(F)(F)F)CC3)cc2C(N)=O)cn1 [Example 10-1, 2,2,2-Trifluoroethyl 4-(4-carbamoyl-3-(6-(2-hydroxypropan-2-yl)pyridin-3-ylamino)-1H-pyrazol-1-yl)-4-(cyanomethyl)piperidine-1-carboxylate] | 0.1 nM |
| CC(C)(C)OC(=O)N1CCC(CC#N)(n2cc(C(N)=O)c(Nc3cccc(Br)c3)n2)CC1 [Example 12-1, tert-Butyl 4-{3-[(3-bromophenyl)amino]-4-carbamoyl-1H-pyrazol-1-yl}-4-(cyanomethyl)piperidine-1-carboxylate] | 1 nM |
| COc1cccc(Nc2nn(C3(CC#N)CCN(C(=O)OC(C)(C)C)CC3)cc2C(N)=O)n1 [Example 13-9, tert-butyl 4-(4-carbamoyl-3-(6-methoxypyridin-2-ylamino)-1H-pyrazol-1-yl)-4-(cyanomethyl)piperidine-1-carboxylate] | 10 nM |
